Test results published in the METLIN SMRT retention time set (Domingo-Almenara et al. 2019).

Experiment: gradient 5% acetonitrile 3 min, to 50% in 2 min, to 85% in 15 min, held 3 min, 100 µL/min
Conditions: column: Zorbax Extend-C18 2.1 x 50 mm; eluents: water / acetonitrile, 0.1% formic acid
In short: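 Mixtures of ~100 pure standards were chromatographed on a Zorbax Extend-C18 column (2.1 × 50 mm, 1.8 μm) at 100 μL/min using water and acetonitrile, each with 0.1% formic acid. Detection used a quadrupole time-of-flight mass spectrometer in positive and negative ionization mode, and data collection spanned 3 months. Retention time was obtained from adduct peaks picked computationally and each checked manually.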

SMILES	RP-LC retention time [s]
COc1ccccc1NC(=O)Cn1cnc2nc(N3CCCC(C(=O)NC4CC4)C3)sc2c1=O (stereo unspecified)	681
CN(C)[C@@H]1CN(C(=O)c2ccc(Cn3cncn3)o2)CC[C@@H]1CO	518
O=C(C1CCCN(S(=O)(=O)c2cc(-c3noc(C4CCCC4)n3)cs2)C1)N1CCOCC1 (stereo unspecified)	966
O=C(C1=NN(Cc2ccc(F)cc2)c2cc(Cl)ccc2S1(=O)=O)N1CCOCC1	899
CCn1cc(C(=O)Nc2cccc(Cl)c2)c2cccnc21	938
C=CCN1CCN(C(=O)c2cn(-c3ccc(-c4nc(C(C)(C)C)no4)cn3)cn2)CC1	680
CCN1CCCn2cc(S(=O)(=O)N3CCN(c4ccccc4F)CC3)cc2C1=O	829
Cc1nc([C@@H]2CN(C(=O)CCc3nc4ccccc4s3)C[C@H]2C(N)=O)n[nH]1	599
O=C(CCc1ccccc1)Nc1cnc(N2CCOCC2)nc1	744
CC(C)c1nnc2ccc(N3CCOCC3)nn12	645
c1ccc2c(c1)CCN(c1nccnc1OC1CCNC1)C2 (stereo unspecified)	649
COc1cc(NC(=O)c2c(C)oc3nc(C)nc(N4CCOCC4)c23)cc(OC)c1	804
O=C(Cc1nnc(-c2ccc3ncccc3c2)o1)NCCC1=CCCCC1	759
Cn1nc(-c2nc(C3CC3)no2)c2c1CCN(C(=O)Nc1ccccc1Cl)C2	871
CCn1ccc(-c2nc(-c3ccc4c(c3)ncn4CCC(=O)N3CCCC3)no2)n1	642

Other lines, results leading:

RP-LC retention time [s]	SMILES
1100	O=c1c2ccccc2n(Cc2nc(-c3cccc(C(F)(F)F)c3)no2)c(=O)n1CC1CCCO1 (stereo unspecified)
809	Cc1ccc(NC(=O)Cn2nc(N3CCOCC3)c3ccccc3c2=O)c(C)c1
681	Cc1cccc(NC(=O)N2CCN(Cc3cn(C)c4ccccc34)CC2)c1
791	COc1ccc(OC)c(NC(=O)CSc2cc(N3CCN(c4ccccc4OC)CC3)ncn2)c1
956	Cc1cc(C(=O)N2CCC(Oc3nc4c(Cl)cccc4s3)CC2)no1
942	CCc1nc(OCC(=O)Nc2ccc(Cl)cc2C(F)(F)F)c2ccccc2n1
864	CC(C)N1C(=O)c2cccnc2Sc2cc(NC(=O)c3ccccc3)ccc21
1070	Cc1nc(-c2cc(S(=O)(=O)Nc3ccc(Br)cc3F)c(C)s2)cs1
602	Cc1nnc(-c2c(S(=O)(=O)NC3CCN(Cc4ccccc4)CC3)c(C)n(C)c2C)o1
682	CCCn1cnc2ccc(-c3noc(CNS(=O)(=O)c4ccccc4)n3)cc21
666	CC(C)OC(=O)Nc1ccc2nc(-c3cscn3)[nH]c2c1
1160	Cc1cc(NS(=O)(=O)c2ccc(Nc3nc(-c4ccc(C(C)C)cc4)cs3)cc2)no1
894	COc1ccc(NC(=O)Cn2cccc2-c2nnc(-c3ccccc3)o2)cc1
861	CCn1cnc(S(=O)(=O)N2CCCC(C(=O)Nc3ccc(C)c(Cl)c3)C2)c1 (stereo unspecified)
808	Cc1ccc(C2CC(=O)c3cnc(Nc4nc(C)c5ccc(C)cc5n4)nc3C2)cc1 (stereo unspecified)
656	CS(=O)(=O)Nc1cccc(NC(=O)c2coc(NC(=O)c3ccccc3)n2)c1
1040	COc1ccc(-c2nc(CN3C(=O)C(O)(c4ccccc4)c4ccccc43)c(C)o2)cc1 (stereo unspecified)
669	CNC(=O)c1cc(C(=O)c2ccc3nc(Nc4ccc(Cl)cc4)[nH]c3c2)ccn1
746	Cc1ccc(CNC(=O)C(=O)NCC(c2ccc3c(c2)CCCN3C)N2CCCC2)cc1 (stereo unspecified)
685	O=C(c1cccs1)N1CCC(c2noc(-c3ccncc3)n2)C1 (stereo unspecified)
1310	CCn1c(C(=O)Nc2cc(Cl)ccc2C)cc2sc(Cl)cc21
